From ChEMBL document CHEMBL1201862, “PubChem BioAssay data set” (2004)
Calls of active or inactive are those of the source.

What was measured:
[1] = molecular target: Lysine-specific demethylase 4C (Homo sapiens, UniProt Q9H3R0); experiment: GASC-1 (JMJD2C) histone demethylase inhibitors, dose response, biochemical, DELFIA europium, cherry-picked samples (AID 488835); type: functional
[2] = tested on: Vero; experiment: cells; type: functional, cell-based; details: Chlorocebus sabaeus
[3] = tested on: Vero; experiment: cells; type: functional; details: Chlorocebus sabaeus
[4] = molecular target: T1, Tyrosine-protein phosphatase non-receptor type 7 (Homo sapiens, UniProt P35236); type: functional
T1 sequence (P35236 whole entry): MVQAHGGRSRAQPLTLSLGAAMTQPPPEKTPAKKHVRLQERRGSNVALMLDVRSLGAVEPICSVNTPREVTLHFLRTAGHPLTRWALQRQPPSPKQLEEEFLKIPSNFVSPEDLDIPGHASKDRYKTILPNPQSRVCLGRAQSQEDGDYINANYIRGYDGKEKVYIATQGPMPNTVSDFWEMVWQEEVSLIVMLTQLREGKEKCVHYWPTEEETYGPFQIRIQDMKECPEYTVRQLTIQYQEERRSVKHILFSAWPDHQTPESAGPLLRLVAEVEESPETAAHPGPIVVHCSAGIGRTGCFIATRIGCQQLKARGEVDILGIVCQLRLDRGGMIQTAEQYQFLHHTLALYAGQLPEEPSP

[5] = molecular target: T2, Tyrosine-protein phosphatase non-receptor type 22 (Homo sapiens, UniProt Q9Y2R2); type: functional
T2 sequence (Q9Y2R2 whole entry): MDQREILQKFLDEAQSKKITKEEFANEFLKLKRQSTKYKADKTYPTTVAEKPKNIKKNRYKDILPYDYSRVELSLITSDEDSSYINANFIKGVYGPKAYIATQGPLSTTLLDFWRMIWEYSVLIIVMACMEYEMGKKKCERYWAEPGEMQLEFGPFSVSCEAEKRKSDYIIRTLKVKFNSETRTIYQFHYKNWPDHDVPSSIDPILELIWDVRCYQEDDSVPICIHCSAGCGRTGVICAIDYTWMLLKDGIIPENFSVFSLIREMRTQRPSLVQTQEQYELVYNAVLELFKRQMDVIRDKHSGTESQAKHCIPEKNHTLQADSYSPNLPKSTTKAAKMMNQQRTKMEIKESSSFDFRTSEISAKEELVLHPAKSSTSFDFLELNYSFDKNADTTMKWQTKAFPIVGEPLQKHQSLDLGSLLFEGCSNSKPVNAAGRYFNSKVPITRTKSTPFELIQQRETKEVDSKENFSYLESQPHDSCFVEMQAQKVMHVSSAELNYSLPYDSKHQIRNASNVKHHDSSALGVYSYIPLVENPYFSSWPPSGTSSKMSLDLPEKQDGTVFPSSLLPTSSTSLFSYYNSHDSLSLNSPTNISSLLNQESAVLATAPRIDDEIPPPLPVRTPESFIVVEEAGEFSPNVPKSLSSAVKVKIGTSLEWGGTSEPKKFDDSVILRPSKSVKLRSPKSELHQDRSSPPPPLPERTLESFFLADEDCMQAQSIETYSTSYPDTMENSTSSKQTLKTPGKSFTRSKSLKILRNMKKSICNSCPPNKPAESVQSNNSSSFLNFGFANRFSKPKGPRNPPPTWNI

[6] = molecular target: T2, Tyrosine-protein phosphatase non-receptor type 22; type: functional; remark: listed apart in the source
[7] = molecular target: T3, Protein skinhead-1 (Caenorhabditis elegans, UniProt P34707); type: functional
T3 sequence (P34707 whole entry): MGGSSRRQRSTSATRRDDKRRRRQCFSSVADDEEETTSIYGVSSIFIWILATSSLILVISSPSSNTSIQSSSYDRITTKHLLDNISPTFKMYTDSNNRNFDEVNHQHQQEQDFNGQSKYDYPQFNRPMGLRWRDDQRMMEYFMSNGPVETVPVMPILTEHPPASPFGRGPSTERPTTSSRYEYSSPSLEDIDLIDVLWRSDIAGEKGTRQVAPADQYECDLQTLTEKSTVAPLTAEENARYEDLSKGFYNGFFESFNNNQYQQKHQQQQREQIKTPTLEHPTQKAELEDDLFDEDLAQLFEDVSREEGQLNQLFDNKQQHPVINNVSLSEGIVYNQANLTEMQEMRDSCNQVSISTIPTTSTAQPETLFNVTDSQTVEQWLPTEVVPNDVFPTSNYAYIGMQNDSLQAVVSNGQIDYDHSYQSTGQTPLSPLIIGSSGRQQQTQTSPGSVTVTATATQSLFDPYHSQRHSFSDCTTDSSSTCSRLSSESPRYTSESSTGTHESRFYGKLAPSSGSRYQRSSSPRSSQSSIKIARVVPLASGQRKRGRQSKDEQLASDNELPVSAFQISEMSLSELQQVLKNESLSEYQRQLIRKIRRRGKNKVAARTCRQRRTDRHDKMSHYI

[8] = tested on: HeLa; experiment: HeLa cell cytotoxicity, dose response, cytotoxicity control for MITF activator project, CellTiter-Glo luminescence, cherry-pick samples (AID 540259); type: functional, cell-based; details: Homo sapiens
[9] = tested on: INS1; experiment: protection of INS-1E cells from cytokine death, dose response, ATP luminescence, dry powder (AID 488844); type: functional, cell-based; details: Rattus norvegicus
[10] = molecular target: Mu-type opioid receptor (Homo sapiens, UniProt P35372); experiment: (§1) Counterscreen for agonists of heterodimerization of the mu 1 (OPRM1) and delta 1 (OPRD1) opioid receptors: Luminescence-based cell-based high throughput dose response assay to identify agonists of OPRM1 homodimerization.; type: functional
[11] = molecular target: Delta-type opioid receptor (Homo sapiens, UniProt P41143); experiment: as §1, with “of OPRD1” for “of OPRM1”, “homodimerization. [Related pubchem assays (depositor defined):AID504326, AID504355, AID504692, AID504904, AID504905]” for “homodimerization.”; type: functional
[12] = molecular target: 5-hydroxytryptamine receptor 5A (Homo sapiens, UniProt P47898); experiment: Counterscreen for agonists of OPRM1-OPRD1 heterodimerization: luminescence-based cell-based high throughput dose response assay to identify agonists of 5-hydroxytryptamine (serotonin) 5A receptor (HTR5A). [Related pubchem assays (depositor defined):AID504326, AID504355, AID504692, AID504904, AID504905]; type: functional
[13] = molecular target: Dual specificity tyrosine-phosphorylation-regulated kinase 1A (Rattus norvegicus, UniProt Q63470); type: biochemical, Homo sapiens
[14] = molecular target: Dual specificity protein kinase CLK1 (Homo sapiens, UniProt P49759); experiment: CLK1 kinase inhibitors, off-target check, dose response, selectivity assay for Dyrk1A inhibitor project, biochemical, cherry-picked samples (AID 588811)
[15] = molecular target: FAD-linked sulfhydryl oxidase ALR (Homo sapiens, UniProt P55789); experiment: inhibitors of human ALR sulfhydryl oxidase, dose response, biochemical, H2O2 detection, luminescence, cherry-pick (AID 493248)
[16] = molecular target: Albumin (Bos taurus, UniProt P02769); experiment: Counterscreen for inhibitors of T-cell receptor (TCR)-CD3 interaction: Fluorescence-based biochemical high throughput dose response assay to identify inhibitors of T-cell receptor (TCR)-CD3 interaction using a TAMRA-labeled BSA probe.; type: functional
[17] = molecular target: T4, Dual specificity protein phosphatase 6 (Rattus norvegicus, UniProt Q64346); experiment: MKP-3 phosphatase inhibitors, primary screen, biochemical, rat enzyme, in vitro (AID 425)
T4 sequence (Q64346 whole entry): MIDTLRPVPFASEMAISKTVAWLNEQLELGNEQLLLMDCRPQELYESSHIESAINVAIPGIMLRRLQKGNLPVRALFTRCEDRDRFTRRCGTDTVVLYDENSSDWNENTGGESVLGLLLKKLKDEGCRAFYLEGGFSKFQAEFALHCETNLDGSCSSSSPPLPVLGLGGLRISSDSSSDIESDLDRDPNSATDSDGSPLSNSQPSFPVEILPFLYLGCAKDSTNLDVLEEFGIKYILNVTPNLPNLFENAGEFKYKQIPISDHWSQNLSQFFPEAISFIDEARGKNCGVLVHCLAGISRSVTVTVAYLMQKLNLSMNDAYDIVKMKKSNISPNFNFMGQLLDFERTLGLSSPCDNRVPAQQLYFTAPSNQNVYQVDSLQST

[18] = molecular target: T5, Small ubiquitin-related modifier 2 (Homo sapiens, UniProt P61956); experiment: SUMO2–SIM peptide binding inhibitors, dose response, selectivity assay for SUMO1 interaction inhibitor project, biochemical, fluorescence polarization, uHTS hits (AID 624385); type: functional; details: read-out: IC50_Mean
[19] = molecular target: Intestinal-type alkaline phosphatase (Homo sapiens, UniProt P09923); experiment: inhibition of human intestinal alkaline phosphatase – biochemical, dose response (AID 488876); type: functional
[20] = THP-1 cell cytotoxicity, dose response, cytotoxicity control for Vif-APOBEC3G degradation inhibitor project, THP-1 cells (AID 1117359); type: functional; details: Human immunodeficiency virus 1, THP-1
[21] = molecular target: T6, Dual specificity protein phosphatase 3 (Homo sapiens, UniProt P51452); experiment: VHR1 phosphatase inhibitors, primary screen, biochemical, absorbance, uHTS (AID 1654)
[22] = molecular target: Intestinal-type alkaline phosphatase (Mus musculus, UniProt P24822); experiment: PubChem AID 488785; type: functional
[23] = molecular target: T5, Small ubiquitin-related modifier 2; experiment: inhibitors of SUMO2 protein-protein interaction, dose response, selectivity assay for SUMO1 interaction inhibitor project, biochemical, FRET, human SUMO2, uHTS hits (AID 624384); type: functional; details: read-out: IC50_Mean
[24] = molecular target: T7, Small ubiquitin-related modifier 1 (Homo sapiens, UniProt P63165); experiment: inhibitors of SUMO1 partner interactions, dose response, biochemical, FRET (AID 624383); type: functional; details: read-out: IC50_Mean
[25] = molecular target: T6, Dual specificity protein phosphatase 3; experiment: VHR1 phosphatase inhibitors, biochemical (AID 1878)
[26] = molecular target: T7, Small ubiquitin-related modifier 1; experiment: inhibitors of SUMO1 peptide binding, dose response, biochemical, fluorescence polarization, uHTS hits (AID 624382); type: functional; details: read-out: IC50_Mean
[27] = molecular target: T8, Caspase-6 (Homo sapiens, UniProt P55212); experiment: human caspase-6 inhibitors, dose response, biochemical, VEID-R110 fluorescence, cherry-pick (AID 720632)
T8 sequence (P55212 whole entry): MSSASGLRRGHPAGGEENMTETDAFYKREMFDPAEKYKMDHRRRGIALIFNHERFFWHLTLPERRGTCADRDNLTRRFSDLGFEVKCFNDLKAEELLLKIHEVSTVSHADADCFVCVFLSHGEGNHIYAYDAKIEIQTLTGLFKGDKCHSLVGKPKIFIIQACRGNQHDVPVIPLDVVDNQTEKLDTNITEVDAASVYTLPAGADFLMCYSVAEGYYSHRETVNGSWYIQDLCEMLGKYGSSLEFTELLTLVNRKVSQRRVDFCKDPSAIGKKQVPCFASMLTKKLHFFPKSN

[28] = molecular target: DNA (cytosine-5)-methyltransferase 1 (Homo sapiens, UniProt P26358); experiment: DNMT1 methyltransferase inhibitors, confirmation, biochemical, fluorescent molecular beacon (AID 602386); type: functional
[29] = molecular target: T9, Alkaline phosphatase, tissue-nonspecific isozyme (Homo sapiens, UniProt P05186); experiment: TNAP enzyme inhibition by screening hits, dose response, selectivity assay for mouse IAP inhibitor project, biochemical, human TNAP, uHTS hits (AID 488906); type: functional
T9 sequence (P05186 whole entry): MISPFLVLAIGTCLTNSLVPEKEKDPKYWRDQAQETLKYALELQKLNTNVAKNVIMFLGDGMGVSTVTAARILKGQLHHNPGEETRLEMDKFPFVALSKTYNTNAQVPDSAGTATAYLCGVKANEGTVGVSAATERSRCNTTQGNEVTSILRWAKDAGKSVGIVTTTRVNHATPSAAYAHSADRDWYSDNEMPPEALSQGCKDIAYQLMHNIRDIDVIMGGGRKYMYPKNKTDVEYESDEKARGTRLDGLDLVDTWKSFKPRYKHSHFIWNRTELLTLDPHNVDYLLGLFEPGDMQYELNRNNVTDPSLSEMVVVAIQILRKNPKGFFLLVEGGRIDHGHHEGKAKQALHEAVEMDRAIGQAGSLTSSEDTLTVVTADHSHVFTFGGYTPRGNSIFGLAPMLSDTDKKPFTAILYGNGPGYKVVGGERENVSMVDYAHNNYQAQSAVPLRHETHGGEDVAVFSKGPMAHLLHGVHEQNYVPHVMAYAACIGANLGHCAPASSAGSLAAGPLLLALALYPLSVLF

Mu-type opioid receptor, sequence (P35372 whole entry): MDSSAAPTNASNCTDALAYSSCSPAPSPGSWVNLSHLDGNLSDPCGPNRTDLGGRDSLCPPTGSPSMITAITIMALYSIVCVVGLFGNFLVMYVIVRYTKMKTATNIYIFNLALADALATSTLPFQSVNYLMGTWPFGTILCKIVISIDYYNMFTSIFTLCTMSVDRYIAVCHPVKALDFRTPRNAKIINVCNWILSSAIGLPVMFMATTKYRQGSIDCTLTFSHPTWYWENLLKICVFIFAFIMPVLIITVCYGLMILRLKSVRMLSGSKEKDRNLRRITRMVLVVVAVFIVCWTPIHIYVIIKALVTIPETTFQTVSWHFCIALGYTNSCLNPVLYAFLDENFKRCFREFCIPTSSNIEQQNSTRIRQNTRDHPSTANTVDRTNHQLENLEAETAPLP
T6 sequence (P51452 whole entry): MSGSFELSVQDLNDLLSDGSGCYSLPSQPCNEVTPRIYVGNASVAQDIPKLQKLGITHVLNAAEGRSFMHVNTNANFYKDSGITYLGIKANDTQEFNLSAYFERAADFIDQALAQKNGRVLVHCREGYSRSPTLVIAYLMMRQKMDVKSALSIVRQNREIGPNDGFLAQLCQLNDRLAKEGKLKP
T7 sequence (P63165 whole entry): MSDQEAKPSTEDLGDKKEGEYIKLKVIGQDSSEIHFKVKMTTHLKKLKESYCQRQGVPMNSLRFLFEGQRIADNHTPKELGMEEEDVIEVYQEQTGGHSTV
Dual specificity protein kinase CLK1, sequence (P49759 whole entry): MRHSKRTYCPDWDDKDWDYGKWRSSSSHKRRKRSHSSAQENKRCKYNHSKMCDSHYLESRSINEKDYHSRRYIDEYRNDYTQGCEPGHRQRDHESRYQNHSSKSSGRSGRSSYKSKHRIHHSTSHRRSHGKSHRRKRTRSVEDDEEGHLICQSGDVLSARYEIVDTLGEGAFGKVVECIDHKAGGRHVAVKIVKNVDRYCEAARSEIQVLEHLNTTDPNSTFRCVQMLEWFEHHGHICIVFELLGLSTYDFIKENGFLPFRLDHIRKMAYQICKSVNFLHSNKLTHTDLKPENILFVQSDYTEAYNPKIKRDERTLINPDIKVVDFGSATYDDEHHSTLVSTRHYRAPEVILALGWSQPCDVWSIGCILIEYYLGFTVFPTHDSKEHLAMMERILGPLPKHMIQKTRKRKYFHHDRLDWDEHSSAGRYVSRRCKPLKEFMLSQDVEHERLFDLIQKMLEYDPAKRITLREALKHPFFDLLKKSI
T5 sequence (P61956 whole entry): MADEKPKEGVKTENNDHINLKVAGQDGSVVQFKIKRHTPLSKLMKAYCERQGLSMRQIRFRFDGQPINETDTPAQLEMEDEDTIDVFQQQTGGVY
5-hydroxytryptamine receptor 5A, sequence (P47898 whole entry): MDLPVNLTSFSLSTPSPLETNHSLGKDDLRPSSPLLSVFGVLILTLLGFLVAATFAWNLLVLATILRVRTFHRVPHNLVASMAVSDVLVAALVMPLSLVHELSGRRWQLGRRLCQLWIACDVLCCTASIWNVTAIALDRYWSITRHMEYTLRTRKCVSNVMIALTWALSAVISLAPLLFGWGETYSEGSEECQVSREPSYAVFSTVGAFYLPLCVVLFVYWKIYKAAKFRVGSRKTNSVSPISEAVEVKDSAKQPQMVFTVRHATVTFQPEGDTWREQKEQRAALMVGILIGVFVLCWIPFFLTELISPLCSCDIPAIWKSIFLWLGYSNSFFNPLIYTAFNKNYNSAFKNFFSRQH
Delta-type opioid receptor, sequence (P41143 whole entry): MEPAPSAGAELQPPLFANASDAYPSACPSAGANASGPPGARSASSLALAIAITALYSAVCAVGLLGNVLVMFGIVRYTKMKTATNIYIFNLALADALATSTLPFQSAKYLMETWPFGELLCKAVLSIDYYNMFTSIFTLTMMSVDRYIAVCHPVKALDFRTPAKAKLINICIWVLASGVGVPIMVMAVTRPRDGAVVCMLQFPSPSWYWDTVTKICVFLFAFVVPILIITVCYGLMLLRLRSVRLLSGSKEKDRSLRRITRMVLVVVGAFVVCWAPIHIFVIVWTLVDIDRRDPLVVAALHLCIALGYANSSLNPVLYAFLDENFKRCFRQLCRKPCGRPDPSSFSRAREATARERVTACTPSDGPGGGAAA
FAD-linked sulfhydryl oxidase ALR, sequence (P55789 whole entry): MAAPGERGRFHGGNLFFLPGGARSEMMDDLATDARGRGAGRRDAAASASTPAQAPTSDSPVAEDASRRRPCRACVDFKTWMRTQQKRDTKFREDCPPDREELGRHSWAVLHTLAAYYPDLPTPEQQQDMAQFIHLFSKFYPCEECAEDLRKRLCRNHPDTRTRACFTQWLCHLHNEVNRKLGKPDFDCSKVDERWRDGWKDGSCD
Lysine-specific demethylase 4C, sequence (Q9H3R0 whole entry): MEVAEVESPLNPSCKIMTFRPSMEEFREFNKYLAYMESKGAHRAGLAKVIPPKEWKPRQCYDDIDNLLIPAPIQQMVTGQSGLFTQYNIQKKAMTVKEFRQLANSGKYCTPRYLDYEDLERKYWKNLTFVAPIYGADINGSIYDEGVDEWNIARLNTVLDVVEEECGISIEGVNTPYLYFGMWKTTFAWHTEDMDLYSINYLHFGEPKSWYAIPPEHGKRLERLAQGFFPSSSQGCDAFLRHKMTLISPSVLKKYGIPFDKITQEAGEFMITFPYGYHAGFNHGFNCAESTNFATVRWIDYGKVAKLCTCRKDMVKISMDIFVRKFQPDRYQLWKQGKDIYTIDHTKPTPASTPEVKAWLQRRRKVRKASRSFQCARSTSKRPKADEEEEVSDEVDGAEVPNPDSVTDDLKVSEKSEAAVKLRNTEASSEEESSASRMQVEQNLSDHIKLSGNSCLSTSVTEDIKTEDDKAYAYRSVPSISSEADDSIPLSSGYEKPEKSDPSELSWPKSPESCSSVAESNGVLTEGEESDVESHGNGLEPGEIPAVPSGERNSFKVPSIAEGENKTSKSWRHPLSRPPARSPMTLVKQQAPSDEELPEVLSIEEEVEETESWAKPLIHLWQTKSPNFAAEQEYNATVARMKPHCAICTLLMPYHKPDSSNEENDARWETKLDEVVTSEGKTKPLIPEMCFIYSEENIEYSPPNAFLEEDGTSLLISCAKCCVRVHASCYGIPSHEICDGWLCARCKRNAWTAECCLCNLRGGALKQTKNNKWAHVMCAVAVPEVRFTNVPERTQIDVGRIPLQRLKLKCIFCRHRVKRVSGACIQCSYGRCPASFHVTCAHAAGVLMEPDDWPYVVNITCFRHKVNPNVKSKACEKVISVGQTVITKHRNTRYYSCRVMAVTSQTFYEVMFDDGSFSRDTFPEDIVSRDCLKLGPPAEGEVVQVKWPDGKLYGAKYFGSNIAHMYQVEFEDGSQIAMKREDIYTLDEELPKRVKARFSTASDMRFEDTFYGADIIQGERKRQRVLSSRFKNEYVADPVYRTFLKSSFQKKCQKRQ
Albumin, sequence (P02769 whole entry): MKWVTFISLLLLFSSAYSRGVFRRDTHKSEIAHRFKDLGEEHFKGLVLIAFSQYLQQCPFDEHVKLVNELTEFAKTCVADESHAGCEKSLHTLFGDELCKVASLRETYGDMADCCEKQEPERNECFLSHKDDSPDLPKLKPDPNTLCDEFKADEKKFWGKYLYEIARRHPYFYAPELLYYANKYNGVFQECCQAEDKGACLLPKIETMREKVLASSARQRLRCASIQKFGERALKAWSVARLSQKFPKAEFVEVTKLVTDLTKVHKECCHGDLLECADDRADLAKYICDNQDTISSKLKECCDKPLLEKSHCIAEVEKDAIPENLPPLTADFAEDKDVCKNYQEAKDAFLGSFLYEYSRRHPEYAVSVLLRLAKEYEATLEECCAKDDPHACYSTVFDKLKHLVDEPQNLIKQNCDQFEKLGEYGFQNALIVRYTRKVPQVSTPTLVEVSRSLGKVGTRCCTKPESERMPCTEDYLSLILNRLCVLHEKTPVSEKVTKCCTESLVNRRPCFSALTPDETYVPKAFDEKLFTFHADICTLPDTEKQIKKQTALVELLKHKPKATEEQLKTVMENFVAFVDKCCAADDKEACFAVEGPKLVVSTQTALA
Intestinal-type alkaline phosphatase (Mus musculus, UniProt P24822), sequence (P24822 whole entry): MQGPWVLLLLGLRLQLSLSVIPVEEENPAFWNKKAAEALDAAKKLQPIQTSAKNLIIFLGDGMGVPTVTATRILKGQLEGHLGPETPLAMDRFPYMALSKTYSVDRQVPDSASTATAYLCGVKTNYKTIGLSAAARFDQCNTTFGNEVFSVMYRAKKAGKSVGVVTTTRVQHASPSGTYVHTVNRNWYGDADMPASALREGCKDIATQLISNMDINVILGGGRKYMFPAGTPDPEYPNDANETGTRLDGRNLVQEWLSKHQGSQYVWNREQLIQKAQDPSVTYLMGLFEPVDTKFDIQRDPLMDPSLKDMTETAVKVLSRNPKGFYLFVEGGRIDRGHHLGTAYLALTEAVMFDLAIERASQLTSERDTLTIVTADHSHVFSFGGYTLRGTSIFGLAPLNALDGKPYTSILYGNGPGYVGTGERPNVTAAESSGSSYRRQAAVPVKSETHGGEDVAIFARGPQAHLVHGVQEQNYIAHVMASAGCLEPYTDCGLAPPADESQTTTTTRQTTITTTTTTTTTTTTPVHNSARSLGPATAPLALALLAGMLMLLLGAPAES

CCOc1ccc(N2C(=O)CC(N(O)c3ccccc3)C2=O)cc1 (centres undefined)
AC50 [1]: 12.7 µM (active)

COc1cccc(/C=C/C(=O)c2ccc3c(c2)OCO3)c1OC
IC50 [2]: > 25 µM (active)
CC50 [3]: > 25 µM (active)

N#C/C(=C\c1c(Oc2ccccc2Cl)nc2ccccn2c1=O)C(=O)NC1CCS(=O)(=O)C1 (centres undefined)
IC50 [2]: > 25 µM (active)

Cc1ccc(C)n1-c1ccc(-c2cc[nH]n2)cc1
IC50 [4]: > 79.4 µM (inactive)
IC50 [5]: > 79.4 µM (inactive)
IC50 [6]: > 79.4 µM (inactive)

CN(N=O)c1ccc(CC2CCc3ccccc32)cc1 (centres undefined)
IC50 [7]: 58.5 µM (inactive)
AC50 [8]: 79.8 µM (active)

COc1ccc(S(=O)(=O)N(C)C[C@H]2Oc3c(NC(=O)Nc4cccc5ccccc45)cccc3C(=O)N([C@H](C)CO)C[C@H]2C)cc1
AC50 [9]: 41.5 µM (active)

CCc1ccc(NC(=O)N(CCCN2CCOCC2)Cc2cccs2)cc1
EC50 [10]: > 92.5 µM (inactive)
EC50 [11]: > 92.5 µM (inactive)
EC50 [12]: > 92.5 µM (inactive)

CC(=O)Nc1ccc(S(=O)(=O)/N=C2\C(=O)c3ccccc3C(O)=C2N2CCN(Cc3ccccc3)CC2)cc1
EC50 [10]: > 92.5 µM (inactive)
EC50 [11]: > 92.5 µM (inactive)
EC50 [12]: > 92.5 µM (inactive)

O=C(Nc1nc2c(s1)CCCC2)c1ccc(N2C(=O)CCC2=O)cc1
AC50 [13]: 5.26 µM (active)
AC50 [14]: 7.74 µM (active)
AC50 [15]: 1.11 µM (active)

c1cc(-c2ccc3c(c2)OCO3)nc(Nc2ccc3c(c2)OCO3)n1
AC50 [14]: 2.04 µM (active)

O=C(N/N=C/c1cn(Cc2cccc(F)c2)c2ccccc12)c1cc(O)cc(O)c1
IC50 [16]: > 94.1 µM (inactive)
IC50 [17]: 74.4 µM (active)
IC50 [18]: 50.6 µM (inactive)
IC50 [19]: > 100 µM (inactive)
CC50 [20]: > 40 µM (active)
IC50 [21]: 4.76 µM (active)
IC50 [22]: 2.7 µM (active)
IC50 [23]: 2.49 µM (active)
IC50 [24]: 6.82 µM (active)
IC50 [25]: 2.08 µM (active)
IC50 [26]: 10.3 µM (active)
AC50 [27]: 461 nM (active)
IC50 [28]: 2.39 µM (active)
IC50 [29]: > 100 µM (inactive)
